# Assay: Laser flash photolysis (LFP), triplet excited state properties
# Format: physicochemical
# Conditions: MeOH
# Protocol: Laser flash photolysis (LFP) was performed using an LP980 transient absorption spectrometer (Edinburgh Instruments) equipped with a continuous beam (or pulse mode) Xenon lamp passing through the sample. A nanosecond Nd:YAG laser (Quantel, Q-smart 450, 5 ns pulse duration, 10 Hz, excitation wavelength 355 nm) was then used to excite the sample perpendicular to the lamp beam. The laser beam energy was adjusted to below 5 mJ. The ground state absorbance of the porphyrins in MeOH was adjusted to 0.20–0.25 at 355 nm (the laser excitation wavelength) and the solutions were purged with high-purity N2 for at least 15 min prior to taking the measurements. The samples were prepared for kq determination in an air atmosphere that was N2-purged for 15 min and O2-purged for 15 min before the measurements were taken. The ground state absorption spectra of the samples were also recorded after purging the sample with N2 or O2, and after transient absorption (TAS) measurements were taken to track the differences in every step of the measurement process to ensure that no photoproducts were formed. All measurements were performed at 25 °C in 1 cm quartz cuvettes. Laser flash photolysis was used to measure the kinetics of triplet state depopulation (τT) and triplet-triplet absorption spectra, and to calculate the intersystem crossing quantum yield (ΦISC) and quenching rate constants of triplet excited states by molecular oxygen (kq). To calculate ΦISC, the first step was the calculation of the molar absorption coefficient of the triplet state using the singlet depletion method, completing the first step according to Equation (S2). The ΦISC values were estimated by using a comparative method with TPP (ΦISC = 0.87 in toluene) as the standard. The ΦISC was calculated according to Equation (S3). Triplet excited state lifetimes were determined by fitting the triplet decays to the equation for the mixed first- and second-order decay, as previously described, and the quenching rate constant of a triplet excited state by molecular oxygen was calculated using the Stern–Volmer equation (Equation (S4)).
compound,measurement,setting,value
"CCCCCCCCCCCCCCCCCC(=O)Nc1ccc(-c2c3nc(c(-c4ccc[n+]([O-])c4)c4ccc([nH]4)c(-c4ccc[n+]([O-])c4)c4nc(c(-c5ccc[n+]([O-])c5)c5ccc2[nH]5)C=C4)C=C3)cc1 [TOPyP3-C17H35, 5-(4-Octadecanamidophenyl)-10,15,20-tris(1-oxido-3-pyridyl)porphyrin]",τT (lifetime of 3PS*),,0.96 ms
same,t from transient absorption kinetics at 450 nm,"N2, 355 nm laser excitation, Figure S9 inset",987 µs
same,τT (lifetime of the triplet excited state),"N2-purged, 25 °C",960 ± 30 μs
same,kq (O2) (quenching rate constant of the triplet excited state by O2),Stern–Volmer,1.4e+09 M⁻¹ s⁻¹
same,ΦISC (quantum yield of intersystem crossing),"comparative method with TPP, estimated",0.51
same,εT-T (molar absorption coefficient of the triplet state),singlet depletion method,58 300 M^−1cm^−1

# Source: paper PMC12382614, “(Oxidopyridyl)Porphyrins of Different Lipophilicity: Photophysical Properties, ROS Production and Phototoxicity on Melanoma Cells Under CoCl2-Induced Hypoxia” (Antioxidants, 2025)
